Reference: patent US20090099237A1, “Methods of treating inflammatory diseases” (Roche Palo Alto LLC, priority 2007, published 2009)
Like-named read-outs stand apart in the source and are kept apart here.

Legend:
CK1α = target: T1, CK1α (Homo sapiens, UniProt P48729); assay: In vitro kinase assay (33P, peptide substrate); format: biochemical
T1 construct: purchased Invitrogen

CK1ε = target: T2, CK1ε (Homo sapiens, UniProt P49674); assay: In vitro kinase assay (33P, peptide substrate); format: biochemical
T2 construct: purchased Invitrogen

AMPK-alpha1 = target: T3, AMPK-alpha1 (Homo sapiens, UniProt Q13131); assay: KinomeScan kinase profiling; format: binding; details: 10 μM
T3 construct: purchased Ambit Biosciences

AURKA = target: T4, AURKA (Homo sapiens, UniProt O14965); assay: KinomeScan kinase profiling; format: binding; details: 10 μM
T4 construct: purchased Ambit Biosciences

BRAF = target: T5, BRAF (Homo sapiens, UniProt P15056); assay: KinomeScan kinase profiling; format: binding; details: 10 μM
T5 construct: purchased Ambit Biosciences

BRAF(V600E) = target: T6, BRAF(V600E) (Homo sapiens, UniProt P15056, V600E); assay: KinomeScan kinase profiling; format: binding; details: 10 μM
T6 construct: purchased Ambit Biosciences

EPHB4 = target: T7, EPHB4 (Homo sapiens, UniProt P54760); assay: KinomeScan kinase profiling; format: binding; details: 10 μM
T7 construct: purchased Ambit Biosciences (San Diego, Calif.)

FGFR2 = target: T8, FGFR2 (Homo sapiens, UniProt P21802); assay: KinomeScan kinase profiling; format: binding; details: 10 μM
T8 construct: purchased Ambit Biosciences

FGFR3 = target: T9, FGFR3 (Homo sapiens, UniProt P22607); assay: KinomeScan kinase profiling; format: binding; details: 10 μM
T9 construct: purchased Ambit Biosciences

FGR = target: T10, FGR (Homo sapiens, UniProt P09769); assay: KinomeScan kinase profiling; format: binding; details: 10 μM
T10 construct: purchased Ambit Biosciences

FYN = target: T11, FYN (Homo sapiens, UniProt P06241); assay: KinomeScan kinase profiling; format: binding; details: 10 μM
T11 construct: purchased Ambit Biosciences

JNK2 = target: T12, JNK2 (Homo sapiens, UniProt P45984); assay: KinomeScan kinase profiling; format: binding; details: 10 μM
T12 construct: purchased Ambit Biosciences

KIT = target: T13, KIT (Homo sapiens, UniProt P10721); assay: KinomeScan kinase profiling; format: binding; details: 10 μM
T13 construct: purchased Ambit Biosciences

LCK = target: T14, LCK (Homo sapiens, UniProt P06239); assay: KinomeScan kinase profiling; format: binding; details: 10 μM
T14 construct: purchased Ambit Biosciences

LIMK1 = LIMK1 (Homo sapiens, UniProt P53667); assay: KinomeScan kinase profiling; format: binding; details: 10 μM
PAK4 = PAK4 (Homo sapiens, UniProt O96013); assay: KinomeScan kinase profiling; format: binding; details: 10 μM
PCTK1 = PCTK1 (Homo sapiens, UniProt Q00536); assay: KinomeScan kinase profiling; format: binding; details: 10 μM
PHKG1 = PHKG1 (Homo sapiens, UniProt Q16816); assay: KinomeScan kinase profiling; format: binding; details: 10 μM
CAMKK1 = target: T15, CAMKK1 (Homo sapiens, UniProt Q8N5S9); assay: KinomeScan kinase profiling; format: binding; details: 10 μM
T15 construct: purchased Ambit Biosciences (San Diego, Calif.)
Text: (§1) The selectivity of a given CK1α, CK1α-CK1δ, CK1α-CK1ε or CK1α-CK1δ-CK1ε inhibitor compound can be determined by testing the compound against a panel of known kinases. An example of such a kinase profiling technology is the “KinomeScan” from Ambit Biosciences in which compounds can be screened for their modulatory activities against more than 200 known kinases.

CLK1 = target: T16, CLK1 (Homo sapiens, UniProt P49759); assay: KinomeScan kinase profiling; format: binding; details: 10 μM
T16 construct: purchased Ambit Biosciences (San Diego, Calif.)
Text: as §1

CSK = target: T17, CSK (Homo sapiens, UniProt P41240); assay: KinomeScan kinase profiling; format: binding; details: 10 μM
T17 construct: purchased Ambit Biosciences (San Diego, Calif.)
Text: as §1

CSNK1G2 = target: T18, CSNK1G2 (Homo sapiens, UniProt P78368); assay: KinomeScan kinase profiling; format: binding; details: 10 μM
T18 construct: purchased Ambit Biosciences (San Diego, Calif.)
Text: as §1

ERBB2 = target: T19, ERBB2 (Homo sapiens, UniProt P04626); assay: KinomeScan kinase profiling; format: binding; details: 10 μM
T19 construct: purchased Ambit Biosciences
Text: as §1

ERBB4 = target: T20, ERBB4 (Homo sapiens, UniProt Q15303); assay: KinomeScan kinase profiling; format: binding; details: 10 μM
T20 construct: purchased Ambit Biosciences
Text: as §1

GAK = target: T21, GAK (Homo sapiens, UniProt O14976); assay: KinomeScan kinase profiling; format: binding; details: 10 μM
T21 construct: purchased Ambit Biosciences
Text: as §1

HCK = target: T22, HCK (Homo sapiens, UniProt P08631); assay: KinomeScan kinase profiling; format: binding; details: 10 μM
T22 construct: purchased Ambit Biosciences
Text: as §1

PAK6 = PAK6 (Homo sapiens, UniProt Q9NQU5); assay: KinomeScan kinase profiling; format: binding; details: 10 μM
Text: as §1

PKAC-alpha = target: T23, PKAC-alpha (Homo sapiens, UniProt P17612); assay: KinomeScan kinase profiling; format: binding; details: 10 μM
T23 construct: purchased Ambit Biosciences

PTK6 = target: T24, PTK6 (Homo sapiens, UniProt Q13882); assay: KinomeScan kinase profiling; format: binding; details: 10 μM
T24 construct: purchased Ambit Biosciences

RPS6KA2 = target: T25, RPS6KA2 (Homo sapiens, UniProt Q15349); assay: KinomeScan kinase profiling; format: binding; details: 10 μM
T25 construct: purchased Ambit Biosciences

STK3 = target: T26, STK3 (Homo sapiens, UniProt Q13188); assay: KinomeScan kinase profiling; format: binding; details: 10 μM
T26 construct: purchased Ambit Biosciences

STK4 = target: T27, STK4 (Homo sapiens, UniProt Q13043); assay: KinomeScan kinase profiling; format: binding; details: 10 μM
T27 construct: purchased Ambit Biosciences

[1] = tested on: IL-6 production in human umbilical vein endothelial cells (HUVECs); assay: Cytokine-induced IL-6 production assay in HUVEC; format: cell-based; details: IL-1β or LPS stimulation for 6 hours, ELISA, FIG. 4
Procedure: Clonetics® primary human umbilical vein endothelial cells (HUVEC; Lonza Walkersville, Inc., Walkersville, Md.) were cultured according to the manufacturer's instructions in EGM™-2 medium (Lonza) supplemented with EGM-2 SingleQuots (containing fetal bovine serum, hydrocortisone, hFGF, VEGF, hFGF-B, R3-IGF-1, ascorbic acid, hEGF, heparin and gentamicin; Lonza). Where indicated, cells were stimulated with 1 ng/mL IL-1β (R&D Systems, Inc., Minneapolis, Minn.) or 50 ng/mL LPS (Sigma-Aldrich, St. Louis, Mo.) for 6 or 24 hours before cell or supernatant harvest.
Activity of IC261 and Compound A against cytokine-induced inflammation in vitro was determined in human umbilical vein endothelial cells (HUVECs) upon stimulation with either IL-1β or LPS for 6 hours. IL-6 was assessed in supernatants by ELISA according to the manufacturer's instructions (BD Biosciences), and % inhibition calculated based on maximal IL-6 production in each assay.

T4 sequence (O14965 whole entry): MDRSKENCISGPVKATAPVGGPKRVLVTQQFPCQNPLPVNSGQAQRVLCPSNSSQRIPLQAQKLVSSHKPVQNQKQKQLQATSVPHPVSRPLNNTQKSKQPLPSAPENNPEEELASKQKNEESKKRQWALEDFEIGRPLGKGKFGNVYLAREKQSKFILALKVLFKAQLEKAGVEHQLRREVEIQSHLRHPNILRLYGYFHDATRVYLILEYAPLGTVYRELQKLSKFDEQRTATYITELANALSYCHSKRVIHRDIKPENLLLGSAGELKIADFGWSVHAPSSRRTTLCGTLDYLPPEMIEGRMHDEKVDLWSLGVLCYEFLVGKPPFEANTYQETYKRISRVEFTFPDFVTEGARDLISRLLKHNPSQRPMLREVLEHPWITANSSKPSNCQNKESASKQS
T10 sequence (P09769 whole entry): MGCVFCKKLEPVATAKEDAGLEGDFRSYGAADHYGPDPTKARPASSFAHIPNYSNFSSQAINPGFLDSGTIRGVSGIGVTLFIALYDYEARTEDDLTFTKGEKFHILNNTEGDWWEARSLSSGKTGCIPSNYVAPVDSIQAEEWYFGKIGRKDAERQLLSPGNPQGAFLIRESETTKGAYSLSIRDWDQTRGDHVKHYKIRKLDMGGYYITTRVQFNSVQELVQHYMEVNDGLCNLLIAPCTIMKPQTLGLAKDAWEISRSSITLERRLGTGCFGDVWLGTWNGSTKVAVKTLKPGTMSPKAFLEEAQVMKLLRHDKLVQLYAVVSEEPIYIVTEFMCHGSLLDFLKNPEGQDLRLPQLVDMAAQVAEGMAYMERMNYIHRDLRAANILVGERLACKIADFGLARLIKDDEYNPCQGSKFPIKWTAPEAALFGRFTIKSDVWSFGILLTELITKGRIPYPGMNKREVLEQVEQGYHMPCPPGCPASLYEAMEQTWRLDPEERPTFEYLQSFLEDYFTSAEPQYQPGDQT
T15 sequence (Q8N5S9 whole entry): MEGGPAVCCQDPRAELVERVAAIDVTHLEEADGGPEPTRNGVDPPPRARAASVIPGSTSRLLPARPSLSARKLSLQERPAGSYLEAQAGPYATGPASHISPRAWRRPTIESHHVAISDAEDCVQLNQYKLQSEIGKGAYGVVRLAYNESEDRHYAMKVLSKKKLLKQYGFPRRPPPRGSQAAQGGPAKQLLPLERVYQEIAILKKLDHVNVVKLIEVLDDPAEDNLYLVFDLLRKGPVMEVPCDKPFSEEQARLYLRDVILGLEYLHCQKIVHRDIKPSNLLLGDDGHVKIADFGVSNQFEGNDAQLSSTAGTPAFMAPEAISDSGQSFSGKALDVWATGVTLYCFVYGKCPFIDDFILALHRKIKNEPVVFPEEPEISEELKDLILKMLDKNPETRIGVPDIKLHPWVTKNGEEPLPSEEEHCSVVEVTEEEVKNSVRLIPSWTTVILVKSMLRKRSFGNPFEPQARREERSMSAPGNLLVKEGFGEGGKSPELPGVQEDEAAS
T8 sequence (P21802 22-821): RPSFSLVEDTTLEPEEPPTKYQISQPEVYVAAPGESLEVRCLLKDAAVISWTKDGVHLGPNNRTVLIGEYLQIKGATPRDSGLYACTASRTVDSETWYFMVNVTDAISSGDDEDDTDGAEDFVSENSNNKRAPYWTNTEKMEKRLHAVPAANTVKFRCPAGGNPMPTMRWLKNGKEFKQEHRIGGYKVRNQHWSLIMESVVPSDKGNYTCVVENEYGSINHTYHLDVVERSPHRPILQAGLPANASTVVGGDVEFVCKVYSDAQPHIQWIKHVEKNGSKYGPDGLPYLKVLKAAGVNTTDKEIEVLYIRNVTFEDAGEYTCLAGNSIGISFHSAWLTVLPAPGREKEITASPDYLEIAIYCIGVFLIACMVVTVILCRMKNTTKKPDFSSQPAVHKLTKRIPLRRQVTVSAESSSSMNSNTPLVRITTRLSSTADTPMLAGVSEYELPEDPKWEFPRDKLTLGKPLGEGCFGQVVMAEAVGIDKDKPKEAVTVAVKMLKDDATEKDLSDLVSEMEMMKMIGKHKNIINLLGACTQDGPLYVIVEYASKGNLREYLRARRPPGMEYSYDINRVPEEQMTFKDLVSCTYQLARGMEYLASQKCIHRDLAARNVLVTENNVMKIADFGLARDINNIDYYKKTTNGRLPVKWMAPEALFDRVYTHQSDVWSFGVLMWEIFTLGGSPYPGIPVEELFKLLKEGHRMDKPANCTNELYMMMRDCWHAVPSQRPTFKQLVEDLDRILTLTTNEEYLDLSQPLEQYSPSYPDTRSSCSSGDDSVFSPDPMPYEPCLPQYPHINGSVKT
T13 sequence (P10721 26-976): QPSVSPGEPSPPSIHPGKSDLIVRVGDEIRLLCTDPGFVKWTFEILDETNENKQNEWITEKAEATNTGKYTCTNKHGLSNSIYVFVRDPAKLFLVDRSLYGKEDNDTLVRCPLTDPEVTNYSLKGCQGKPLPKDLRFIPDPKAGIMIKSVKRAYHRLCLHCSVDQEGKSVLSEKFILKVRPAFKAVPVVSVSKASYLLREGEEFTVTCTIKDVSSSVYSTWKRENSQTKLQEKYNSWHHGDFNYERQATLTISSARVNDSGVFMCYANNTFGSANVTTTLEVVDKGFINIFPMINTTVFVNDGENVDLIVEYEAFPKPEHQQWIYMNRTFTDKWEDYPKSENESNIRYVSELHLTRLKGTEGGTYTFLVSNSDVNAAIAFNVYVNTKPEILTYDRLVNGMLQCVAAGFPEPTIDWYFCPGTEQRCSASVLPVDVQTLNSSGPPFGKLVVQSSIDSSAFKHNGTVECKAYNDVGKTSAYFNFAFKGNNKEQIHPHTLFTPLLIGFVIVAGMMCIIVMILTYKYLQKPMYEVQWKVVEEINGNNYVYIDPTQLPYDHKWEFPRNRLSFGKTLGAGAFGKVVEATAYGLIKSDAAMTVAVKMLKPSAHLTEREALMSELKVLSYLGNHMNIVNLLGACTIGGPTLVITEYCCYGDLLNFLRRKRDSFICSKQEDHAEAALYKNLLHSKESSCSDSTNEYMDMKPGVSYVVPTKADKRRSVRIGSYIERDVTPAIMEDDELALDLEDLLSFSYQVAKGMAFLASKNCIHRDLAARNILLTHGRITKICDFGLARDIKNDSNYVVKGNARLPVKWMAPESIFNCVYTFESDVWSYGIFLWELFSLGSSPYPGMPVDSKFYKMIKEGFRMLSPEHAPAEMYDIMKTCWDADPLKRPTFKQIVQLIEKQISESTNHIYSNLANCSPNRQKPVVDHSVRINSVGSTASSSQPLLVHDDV
T24 sequence (Q13882 whole entry): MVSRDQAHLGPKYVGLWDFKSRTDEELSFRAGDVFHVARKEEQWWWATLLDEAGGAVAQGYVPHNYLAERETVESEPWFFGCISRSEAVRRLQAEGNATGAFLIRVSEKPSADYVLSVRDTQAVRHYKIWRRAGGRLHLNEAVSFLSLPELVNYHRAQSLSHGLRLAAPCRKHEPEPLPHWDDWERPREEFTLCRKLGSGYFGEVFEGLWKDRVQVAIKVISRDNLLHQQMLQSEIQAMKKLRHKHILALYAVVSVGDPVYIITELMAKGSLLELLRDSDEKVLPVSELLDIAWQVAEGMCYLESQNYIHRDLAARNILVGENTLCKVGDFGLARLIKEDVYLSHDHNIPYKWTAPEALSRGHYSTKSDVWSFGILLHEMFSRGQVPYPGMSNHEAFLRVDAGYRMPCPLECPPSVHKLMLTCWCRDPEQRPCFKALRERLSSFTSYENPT
T19 sequence (P04626 23-1255): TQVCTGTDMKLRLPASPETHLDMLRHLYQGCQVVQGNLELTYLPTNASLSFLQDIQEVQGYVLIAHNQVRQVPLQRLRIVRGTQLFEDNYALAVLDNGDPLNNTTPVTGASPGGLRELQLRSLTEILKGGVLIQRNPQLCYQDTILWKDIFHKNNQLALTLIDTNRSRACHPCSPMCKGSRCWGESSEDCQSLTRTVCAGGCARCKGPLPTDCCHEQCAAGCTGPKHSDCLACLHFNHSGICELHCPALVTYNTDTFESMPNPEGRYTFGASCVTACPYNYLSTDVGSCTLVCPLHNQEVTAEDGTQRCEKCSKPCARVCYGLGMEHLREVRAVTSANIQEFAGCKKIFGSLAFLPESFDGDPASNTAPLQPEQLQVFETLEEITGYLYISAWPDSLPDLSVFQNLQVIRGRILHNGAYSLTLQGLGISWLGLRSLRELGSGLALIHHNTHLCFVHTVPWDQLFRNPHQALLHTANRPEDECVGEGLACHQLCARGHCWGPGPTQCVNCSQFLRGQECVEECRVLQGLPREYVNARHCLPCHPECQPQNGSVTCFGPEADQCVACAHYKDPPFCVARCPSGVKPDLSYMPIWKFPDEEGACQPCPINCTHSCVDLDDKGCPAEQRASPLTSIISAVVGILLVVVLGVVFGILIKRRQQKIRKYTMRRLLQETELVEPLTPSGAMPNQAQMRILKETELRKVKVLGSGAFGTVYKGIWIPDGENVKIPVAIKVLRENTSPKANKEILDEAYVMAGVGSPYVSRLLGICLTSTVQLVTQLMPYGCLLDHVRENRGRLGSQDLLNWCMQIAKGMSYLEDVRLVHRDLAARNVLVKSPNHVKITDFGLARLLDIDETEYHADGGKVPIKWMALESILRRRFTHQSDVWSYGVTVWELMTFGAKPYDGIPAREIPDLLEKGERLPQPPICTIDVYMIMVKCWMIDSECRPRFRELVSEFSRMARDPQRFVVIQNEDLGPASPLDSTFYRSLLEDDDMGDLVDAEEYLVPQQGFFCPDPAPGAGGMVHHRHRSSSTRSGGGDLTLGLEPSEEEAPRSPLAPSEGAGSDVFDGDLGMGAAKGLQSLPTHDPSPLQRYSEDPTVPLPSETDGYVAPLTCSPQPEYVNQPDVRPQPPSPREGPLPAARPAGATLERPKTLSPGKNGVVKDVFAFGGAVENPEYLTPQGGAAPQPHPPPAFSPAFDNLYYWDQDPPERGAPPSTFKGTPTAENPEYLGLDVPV

Compound	% Binding (AMPK-alpha1) [%]	% Binding (AURKA) [%]	% Binding (BRAF) [%]	% Binding (BRAF(V600E)) [%]	% Binding (EPHB4) [%]	% Binding (FGFR2) [%]	% Binding (FGFR3) [%]	% Binding (FGR) [%]	% Binding (FYN) [%]	% Binding (JNK2) [%]	% Binding (KIT) [%]	% Binding (LCK) [%]	% Binding (LIMK1) [%]	% Binding (PAK4) [%]	% Binding (PCTK1) [%]	% Binding (PHKG1) [%]	% Binding (CAMKK1) [%]	% Binding (CLK1) [%]	% Binding (CSK) [%]	% Binding (CSNK1G2) [%]	other results
COc1cc(OC)c(C=C2C(O)=Nc3ccccc32)c(OC)c1 [IC261, 3-[(2,4,6-trimethoxyphenyl)methylidenyl]-indolin-2-one]	<50	<50	<50	<50	<50	<50	<50	<50	<50	<50	<50	<50	<50	<50	<50	<50	<50	<50	<50	<50	IC50 (CK1α): 6.21 µM; IC50 (CK1ε): 5.97 µM; % Binding (ERBB2): <50%; % Binding (ERBB4): <50%; % Binding (GAK): <50%; % Binding (HCK): <50%; % Binding (PAK6): <50%; % Binding (PKAC-alpha): <50%; % Binding (PTK6): <50%; % Binding (RPS6KA2): <50%; % Binding (STK3): <50%; % Binding (STK4): <50%; inhibition of IL-1β or LPS-induced IL-6 production [1]: inhibition
NC(=O)c1cc(-c2ccncc2)c[nH]1 [Compound A, 4-Pyridin-4-yl-1H-pyrrole-2-carboxylic acid amide]	<50	<50	<50	<50	<50	<50	<50	<50	<50	<50	<50	<50	<50	<50	<50	<50	<50	97	<50	76	IC50 (CK1α; CK1α, 50 μM ATP, read-out: IC50): 1.2 µM; IC50 (CK1ε; CK1ε, 50 μM ATP, read-out: IC50): 17.3 µM; % Binding (ERBB2): <50%; % Binding (ERBB4): <50%; % Binding (GAK): <50%; % Binding (HCK): <50%; % Binding (PAK6): <50%; % Binding (PKAC-alpha): <50%; % Binding (PTK6): <50%; % Binding (RPS6KA2): <50%; % Binding (STK3): <50%; % Binding (STK4): <50%; inhibition of IL-1β or LPS-induced IL-6 production [1]: inhibition
